How the values were obtained:
[1] = test system: ATG13 phosphorylation level in MIA PaCa-2 cells; assay: Inhibition of ATG13 phosphorylation level in MIA PaCa-2 cells (Phospho-Atg13 (ser355) ELISA); type: cell-based; conditions: Homo sapiens, Torin1 100 nM, 24 h incubation, 8 concentrations, highest 10 µM, read-out: pATG13 ELISA IC50
Procedure: The inhibitory effect of the compound of the present disclosure on ULK1 was evaluated by testing the inhibitory effect of the compound of the present disclosure on ATG13 phosphorylation level in MIA PaCa-2 cells.
MIA PaCa-2 cells (ATCC, CRM-CRL-1420) were cultured in a complete medium, namely, a DMEM medium (Gibco, 11965-092) containing 10% fetal bovine serum (Corning, 35-081-CV), 2.5% horse serum (Gibco, 16050-122) and 1% double antibody (Gibco, 15140-122). The experiments were performed according to the requirements of the kit (Cell Signaling Technology, 17208C).
Cell plating: MIA PaCa-2 at 80% growth confluence were digested, diluted with the complete medium, and added to a 96-well cell culture plate (Costar, 3596) at 20,000 cells per well, with a volume of 90 µL.
Compound incubation: 5 µL of Torin1 and 5 µL of a serially diluted compound were added to each well so that the highest concentration of the compound in the reaction system was 10 µM. 5-fold serial dilution with 8 concentrations was performed, and the final concentration of Torin1 was 100 nM. The DMSO content in the system was 0.1%. The reaction plate was placed in an incubator at 37°C in 5% CO2, and was incubated for 24 h. 10 µL of Torin1 was added to the negative control wells (NC) to a final concentration of 100 nM, with a DMSO content of 0.1%.
Reaction detection: After the incubation was completed, the cell plate was washed with a pre-cooled DPBS (Corning, 21-031-CVC) to wash away the compound and medium. 50 µL of pre-cooled cell lysis solution was added to each well, incubated on ice for 10 min. The cell plate was centrifuged, and the supernatant was transfered to an ELISA reaction plate. Simultaneously, 50 µL of Phospho-Atg13 (ser355) rabbit detection antibody was added, followed by incubation at room temperature under shaking for 60 min. After the incubation was completed, the reaction plate was washed with a washing solution for 4 times. 100 µL of TMB substrate was added for color development reaction, followed by incubation under shaded conditions with shaking for 15 min. Finally, 100 µL of stop solution was added to each well. The reaction was terminated by shaking for 10 s, and the absorbance value at 450 nm and 560 nm were collected within 10 min using Envision (Perkin Elmer, EnVision 2105).
The inhibition ratio was calculated by subtracting the absorbance value at […] from the absorbance value at 450 nm for each well. The inhibition ratio formula is as follows: [formula]
The dose-effect curve was fitted using the log (inhibitor) vs. response -Variable slope of Graphpad Prism8, thereby affording the IC50 value of each compound for inhibiting ATG13 phosphorylation level.

ULK1 = target: T1, ULK1 (Homo sapiens, UniProt O75385); assay: Inhibition of ULK1 protein activity (phosphorylation function), ADP-Glo method; type: biochemical
T1 construct: purchased Promega V3521
T1 sequence (O75385 1-1050): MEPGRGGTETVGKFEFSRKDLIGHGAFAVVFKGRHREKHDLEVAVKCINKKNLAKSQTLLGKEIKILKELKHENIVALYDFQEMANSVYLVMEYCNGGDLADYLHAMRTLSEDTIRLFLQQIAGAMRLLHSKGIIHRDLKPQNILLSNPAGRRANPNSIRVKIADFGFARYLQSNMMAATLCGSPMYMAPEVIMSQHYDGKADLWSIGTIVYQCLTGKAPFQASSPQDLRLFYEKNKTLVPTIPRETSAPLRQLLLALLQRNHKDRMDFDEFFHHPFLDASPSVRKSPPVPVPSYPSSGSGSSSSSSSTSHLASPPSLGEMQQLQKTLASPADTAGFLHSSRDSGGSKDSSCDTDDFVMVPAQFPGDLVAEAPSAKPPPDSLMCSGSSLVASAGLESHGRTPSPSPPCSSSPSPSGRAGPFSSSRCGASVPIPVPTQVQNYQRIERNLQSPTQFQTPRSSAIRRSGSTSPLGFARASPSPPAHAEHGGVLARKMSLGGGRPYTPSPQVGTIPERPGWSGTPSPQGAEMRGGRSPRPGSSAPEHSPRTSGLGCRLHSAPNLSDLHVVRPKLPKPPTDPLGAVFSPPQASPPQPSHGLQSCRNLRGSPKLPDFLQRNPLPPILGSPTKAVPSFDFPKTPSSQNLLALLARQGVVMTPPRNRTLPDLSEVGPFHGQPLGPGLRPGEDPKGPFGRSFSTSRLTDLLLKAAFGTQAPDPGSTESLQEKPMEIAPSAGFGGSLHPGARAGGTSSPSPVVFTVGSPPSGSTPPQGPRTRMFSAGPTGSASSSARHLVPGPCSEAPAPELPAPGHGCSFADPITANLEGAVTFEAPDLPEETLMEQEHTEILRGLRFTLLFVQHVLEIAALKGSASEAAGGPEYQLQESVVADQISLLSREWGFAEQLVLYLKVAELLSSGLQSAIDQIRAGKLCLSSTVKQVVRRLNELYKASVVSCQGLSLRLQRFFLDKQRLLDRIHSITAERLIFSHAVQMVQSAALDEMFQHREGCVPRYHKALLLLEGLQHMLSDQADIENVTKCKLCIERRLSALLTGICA
Procedure: In this experiment, the inhibitory effect of a compound on the phosphorylation function of ULK1 was detected by ADP-Glo method. The inhibitory effect of the compound of the present disclosure on the ULK1 target was evaluated based on IC50.
Compound formulation: Using an ECHO (Beckman, ECHO650), the compound was serially diluted 3-fold in DMSO in a 384-well plate (PE, 6007290). A total of 10 concentration points were set, with the maximum concentration of the compound being 10 µM, and 50 nL per well. Positive control wells and negative control wells were added with 50 nL DMSO, respectively.
Reaction process: A 32 nM of ULK1 (Promega, V3521) solution was formulated, and 2.5 µL/well was transferred to the compound test wells and the negative control wells (NC). 2.5 µL/well of 1× Assay buffer was added to the positive control wells (PC). A mixed solution of 100 µM of ATP and 1.86 µM of MBP was formulated, and 2.5 µL/well was transferred to the reaction plate. After centrifugation, the reaction was initiated and incubated at room temperature for 60 min. After the reaction was completed, 5 µL/well of ADP-Glo Reagent (Promega, V9102) was added to the reaction plate. After centrifugation, the reaction was incubated at room temperature for 40 minutes. Finally, 10 µL/well of Kinase Detection Buffer was added, followed by centrifugation and incubation at room temperature for 30 min. The chemiluminescence value was read using Envision (PE, Envision2105).
Assay buffer: a reaction buffer; and Kinase Detection buffer: a detection buffer, both were taken from the ADP-Glodetection kit, purchased from Promega, model V9102.
The inhibition ratio of a compound on ULK1 activity was calculated using the following formula: [formula]
The dose-effect curve was fitted using the log(inhibitor) vs. response -Variable slope of the analysis software GraphPad Prism 8, thereby affording the IC50 value of each compound for enzyme activity.

Question: For `CN1CCN2c3ccc(Nc4ncc(C(F)(F)F)c(NCCCN5CCCCC5=O)n4)cc3COCC2C1` (stereo not shown) [Compound 11], which IC50 [1] is on record?
Answer: < 0.1 µM

Question: And the IC50 (ULK1)?
Answer: < 0.1 µM

Question: `CN1CCN2c3ccc(Nc4ncc(C(F)(F)F)c(N5CCC6(CCN(C)C6)C5)n4)cc3COCC2C1` (stereo not shown) [Compound 5] was tested. Which IC50 [1] did it give?
Answer: 0.1 to 1 µM

Question: What about the IC50 (ULK1) of the same compound?
Answer: < 0.1 µM

Question: `CN1CCN2c3ccc(Nc4ncc(C(F)(F)F)c(N[C@H]5CC[C@@H](n6cccn6)CC5)n4)cc3COCC2C1` (stereo partly shown) [Compound 6] was tested. Which IC50 [1] did it give?
Answer: 0.1 to 1 µM

Question: And the IC50 (ULK1)?
Answer: < 0.1 µM

Question: What does the source list for `CN1CCN2c3ccc(Nc4ncc(C(F)(F)F)c(OCCCN5CCCCC5=O)n4)cc3OCC2C1` (stereo not shown) [Compound 12]?
Answer: IC50 [1]: 0.1 to 1 µM; IC50 (ULK1): < 0.1 µM

Question: `CN1CCN2c3ccc(Nc4ncc(C(F)(F)F)c(N5CC6(CN(C)C6)C5)n4)cc3COCC2C1` (stereo not shown) [Compound 22] was tested. Which IC50 [1] did it give?
Answer: 0.1 to 1 µM

Question: What about the IC50 (ULK1) of the same compound?
Answer: < 0.1 µM

Question: `CN1CCN2c3ccc(Nc4ncc(C(F)(F)F)c(N5CCC(n6cccn6)CC5)n4)cc3COCC2C1` (stereo not shown) [Compound 4] was tested. Which IC50 [1] did it give?
Answer: > 1 µM

Question: And the IC50 (ULK1)?
Answer: < 0.1 µM

Question: Which results are given for `CN1CCN2c3ccc(Nc4ncc(C(F)(F)F)c(N5CC6(CCN(C)C6)C5)n4)cc3COCC2C1` (stereo not shown) [Compound 20]?
Answer: IC50 [1]: 0.1 to 1 µM; IC50 (ULK1): < 0.1 µM

Question: `CN1CCN2c3ccc(Nc4ncc(C(F)(F)F)c(OCCCc5ccccc5C#N)n4)cc3COCC2C1` (stereo not shown) [Compound 9] was tested. Which IC50 [1] did it give?
Answer: 0.1 to 1 µM

Question: And the IC50 (ULK1)?
Answer: < 0.1 µM

Question: Which IC50 [1] does the source give for `CN1CCN2c3ccc(Nc4ncc(C(F)(F)F)c(N5CCN(C)C(=O)C5)n4)cc3COCC2C1` (stereo not shown) [Compound 1] here?
Answer: > 1 µM

Question: And the IC50 (ULK1)?
Answer: 0.1 to 1 µM

Question: What does the source list for `CN1CCN2c3ccc(Nc4ncc(C(F)(F)F)c(NC5CCN(C(=O)C6CCC6)CC5)n4)cc3COCC2C1` (stereo not shown) [Compound 21]?
Answer: IC50 [1]: > 1 µM; IC50 (ULK1): < 0.1 µM

Question: What does the source list for `CN1CCN2c3ccc(Nc4ncc(C(F)(F)F)c(NCCCn5cccn5)n4)cc3COCC2C1` (stereo not shown) [Compound 8]?
Answer: IC50 [1]: > 1 µM; IC50 (ULK1): < 0.1 µM

Question: With `CN1CCN2c3ccc(Nc4ncc(C(F)(F)F)c(OCCCN5CCCCC5=O)n4)cc3COCC2C1` (stereo not shown) [Compound 3] as the compound, how does the IC50 [1] read?
Answer: 0.1 to 1 µM

Question: What about the IC50 (ULK1) of the same compound?
Answer: < 0.1 µM

Question: Which results are given for `CN1CCN2c3ccc(Nc4ncc(C(F)(F)F)c(N5CCC6(CCN(C)C6)CC5)n4)cc3COCC2C1` (stereo not shown) [Compound 2]?
Answer: IC50 [1]: > 1 µM; IC50 (ULK1): < 0.1 µM

Question: For `CN1CCN2c3ccc(Nc4ncc(C(F)(F)F)c(OCCCn5cccn5)n4)cc3COCC2C1` (stereo not shown) [Compound 23], which IC50 [1] is on record?
Answer: > 1 µM

Question: What about the IC50 (ULK1) of the same compound?
Answer: < 0.1 µM

Reference: patent publication EP4778931A1, “ULK1 INHIBITOR, PREPARATION METHOD THEREFOR AND USE THEREOF” (Dovetree Medicines Unus, Inc., priority 2023, dated 2025)
